What was measured:
[1] = Test B: Cytotoxicity Assay; assay type: cell-based; details: human, uninfected MT-4 cells, same protocol as Test A, CellTiter-Glo
Procedure: (§1) For the antiviral assay, 40 μL of 1× test concentration of 3-fold serially diluted compound in culture medium with 10% FBS was added to each well of a 384-well plate (10 concentrations) in quadruplicate. MT-4 cells were next mixed with HIV-IIIb at an m.o.i of 0.003 for 1 hour, after which time 35 μL of virus/cell mixture (2000 cells) was immediately added to each well containing 40 μL of diluted compound. The plates were then incubated at 37° C. for 5 days. After 5 days of incubation, 25 μl of 2× concentrated CellTiter-Glo™ Reagent (catalog #G7571, Promega Biosciences, Inc., Madison, Wis.) was added to each well containing MT-4 cells. Cell lysis was carried out by incubating at room temperature for 10 min and then chemiluminescence was read.
Compound cytotoxicity and the corresponding CC50 values was determined using the same protocol as described in the antiviral assay (Test A) except that uninfected cells were used.

HIV-IIIb = assay: Test A: Antiviral Assay in MT4 Cells; assay type: cell-based, HIV-1; details: Human immunodeficiency virus 1, IIIB, MT4, 120 h, read-out: % inhibition at 3 μM
Procedure: as §1

Compound	CC50 at 5 days [1]	inhibition at 3 µM (HIV-IIIb)
COCCNc1ncc(-c2ccc(F)c(C(N)=O)c2)c([C@H](Cc2cc(F)cc(F)c2)NC(=O)Cn2nc(C(F)F)c3c2C(F)(F)CCC3(F)F)n1 [Compound 12E, (S)-5-(4-(1-(2-(3-(difluoromethyl)-4,4,7,7-tetrafluoro-4,5,6,7-tetrahydro-1H-indazol-1-yl)acetamido)-2-(3,5-difluorophenyl)ethyl)-2-((2-methoxyethyl)amino)pyrimidin-5-yl)-2-fluorobenzamide]	18.2 µM	86%
COCCNc1ncc(-c2ccc(F)c(C(N)=O)c2)c([C@@H](Cc2cc(F)cc(F)c2)NC(=O)Cn2nc(C(F)(F)F)c3c2CCCC3)n1 [Compound 11J, (R)-5-(4-(2-(3,5-difluorophenyl)-1-(2-(3-(trifluoromethyl)-4,5,6,7-tetrahydro-1H-indazol-1-yl)acetamido)ethyl)-2-((2-methoxyethyl)amino)pyrimidin-5-yl)-2-fluorobenzamide]	16.3 µM	0%
Nc1ccc(-c2cccc(CO)c2)c(C(Cc2cc(F)cc(F)c2)NC(=O)Cc2c[nH]c3ccc(F)cc23)n1 (stereo not shown) [Compound 6, N-(1-(6-amino-3-(3-(hydroxymethyl)phenyl)pyridin-2-yl)-2-(3,5-difluorophenyl)ethyl)-2-(5-fluoro-1H-indol-3-yl)acetamide]	14.4 µM	59%
NC(=O)c1cc(-c2cnc(N3CCC(O)CC3)nc2[C@H](Cc2cc(F)cc(F)c2)NC(=O)Cn2nc(C(F)F)c3c2C(F)(F)CCC3(F)F)ccc1F [Compound 21, (S)-5-(4-(1-(2-(3-(difluoromethyl)-4,4,7,7-tetrafluoro-4,5,6,7-tetrahydro-1H-indazol-1-yl)acetamido)-2-(3,5-difluorophenyl)ethyl)-2-(4-hydroxypiperidin-1-yl)pyrimidin-5-yl)-2-fluorobenzamide]	22.5 µM	41%
O=C(Cn1nc(C(F)F)c2c1C(F)(F)CCC2(F)F)N[C@@H](Cc1cc(F)cc(F)c1)c1nc(-n2cncn2)ncc1-c1ccc2c(c1)C(=O)NC2 [Compound 29D, (S)-2-(3-(difluoromethyl)-4,4,7,7-tetrafluoro-4,5,6,7-tetrahydro-1H-indazol-1-yl)-N-(2-(3,5-difluorophenyl)-1-(5-(3-oxoisoindolin-5-yl)-2-(1H-1,2,4-triazol-1-yl)pyrimidin-4-yl)ethyl)acetamide]	40 µM	101%
Nc1ccc(-c2cccc(F)c2)c(C(Cc2cc(F)cc(F)c2)NC(=O)Cc2c[nH]c3ccc(F)cc23)n1 (stereo not shown) [Compound 9, N-(1-(6-amino-3-(3-fluorophenyl)pyridin-2-yl)-2-(3,5-difluorophenyl)ethyl)-2-(5-fluoro-1H-indol-3-yl)acetamide]	17.5 µM	41%
NC(=O)c1cc(-c2cnc(NCC3CC3)nc2[C@H](Cc2cc(F)cc(F)c2)NC(=O)Cn2nc(C(F)F)c3c2C(F)(F)CCC3(F)F)ccc1F [Compound 13B, (S)-5-(2-((cyclopropylmethyl)amino)-4-(1-(2-(3-(difluoromethyl)-4,4,7,7-tetrafluoro-4,5,6,7-tetrahydro-1H-indazol-1-yl)acetamido)-2-(3,5-difluorophenyl)ethyl)pyrimidin-5-yl)-2-fluorobenzamide]	7.72 µM	42%
CN(C)c1ncc(-c2ccc(F)c(C(N)=O)c2)c([C@H](Cc2cc(F)cc(F)c2)NC(=O)Cn2nc(C(F)F)c3c2C(F)(F)CCC3(F)F)n1 [Compound 18B, (S)-5-(4-(1-(2-(3-(difluoromethyl)-4,4,7,7-tetrafluoro-4,5,6,7-tetrahydro-1H-indazol-1-yl)acetamido)-2-(3,5-difluorophenyl)ethyl)-2-(dimethylamino)pyrimidin-5-yl)-2-fluorobenzamide]	38.9 µM	16%
Nc1ccc(-c2cccc(S(N)(=O)=O)c2)c(C(Cc2cc(F)cc(F)c2)NC(=O)Cc2c[nH]c3ccc(F)cc23)n1 (stereo not shown) [Compound 5, N-(1-(6-amino-3-(3-sulfamoylphenyl)pyridin-2-yl)-2-(3,5-difluorophenyl)ethyl)-2-(5-fluoro-1H-indol-3-yl)acetamide]	28.7 µM	87%
NC(=O)c1cc(-c2cnc(N3CC4(COC4)C3)nc2[C@H](Cc2cc(F)cc(F)c2)NC(=O)Cn2nc(C(F)F)c3c2C(F)(F)CCC3(F)F)ccc1F [Compound 15B, (S)-5-(4-(1-(2-(3-(difluoromethyl)-4,4,7,7-tetrafluoro-4,5,6,7-tetrahydro-1H-indazol-1-yl)acetamido)-2-(3,5-difluorophenyl)ethyl)-2-(2-Oxa-6-azaspiro[3.3]heptan-6-yl)pyrimidin-5-yl)-2-fluorobenzamide]	36.3 µM	70%
NC(=O)c1cc(-c2cnc(NCCO)nc2[C@H](Cc2cc(F)cc(F)c2)NC(=O)Cn2nc(C(F)F)c3c2C(F)(F)CCC3(F)F)ccc1F [Compound 26, (S)-5-(4-(1-(2-(3-(difluoromethyl)-4,4,7,7-tetrafluoro-4,5,6,7-tetrahydro-1H-indazol-1-yl)acetamido)-2-(3,5-difluorophenyl)ethyl)-2-((2-hydroxyethyl)amino)pyrimidin-5-yl)-2-fluorobenzamide]	19.9 µM	86%
CNc1ncc(-c2ccc(F)c(C(N)=O)c2)c([C@H](Cc2cc(F)cc(F)c2)NC(=O)Cn2nc(C(F)F)c3c2C(F)(F)CCC3(F)F)n1 [Compound 14B, (S)-5-(4-(1-(2-(3-(difluoromethyl)-4,4,7,7-tetrafluoro-4,5,6,7-tetrahydro-1H-indazol-1-yl)acetamido)-2-(3,5-difluorophenyl)ethyl)-2-(methylamino)pyrimidin-5-yl)-2-fluorobenzamide]	28.6 µM	89%
NC(=O)c1cc(-c2cnc(NCCN3CCNC3=O)nc2[C@H](Cc2cc(F)cc(F)c2)NC(=O)Cn2nc(C(F)F)c3c2C(F)(F)CCC3(F)F)ccc1F [Compound 22B, (S)-5-(4-(1-(2-(3-(difluoromethyl)-4,4,7,7-tetrafluoro-4,5,6,7-tetrahydro-1H-indazol-1-yl)acetamido)-2-(3,5-difluorophenyl)ethyl)-2-((2-(2-oxoimidazolidin-1-yl)ethyl)amino)pyrimidin-5-yl)-2-fluorobenzamide]	34.1 µM	93%
COCCOCCNc1ncc(-c2ccc(F)c(C(N)=O)c2)c([C@H](Cc2cc(F)cc(F)c2)NC(=O)Cn2nc(C(F)F)c3c2C(F)(F)CCC3(F)F)n1 [Compound 17B, (S)-5-(4-(1-(2-(3-(difluoromethyl)-4,4,7,7-tetrafluoro-4,5,6,7-tetrahydro-1H-indazol-1-yl)acetamido)-2-(3,5-difluorophenyl)ethyl)-2-((2-(2-methoxyethoxy)ethyl)amino)pyrimidin-5-yl)-2-fluorobenzamide]	48.8 µM	83%
NC(=O)c1cc(-c2ccc(N)nc2[C@@H](Cc2cc(F)cc(F)c2)NC(=O)Cc2c[nH]c3ccc(F)cc23)ccc1F [Compound 2, (R)-5-(6-amino-2-(2-(3,5-difluorophenyl)-1-(2-(5-fluoro-1H-indol-3-yl)acetamido)ethyl)pyridin-3-yl)-2-fluorobenzamide]	25.2 µM	0%
Nc1ccc(-c2ccc(Oc3ccccc3)cc2)c(C(Cc2cc(F)cc(F)c2)NC(=O)Cc2c[nH]c3ccc(F)cc23)n1 (stereo not shown) [Compound 7, N-(1-(6-amino-3-(4-phenoxyphenyl)pyridin-2-yl)-2-(3,5-difluorophenyl)ethyl)-2-(5-fluoro-1H-indol-3-yl)acetamide]	11.5 µM	37%
NC(=O)c1cc(-c2cnc(NCCN3CCCC3=O)nc2[C@H](Cc2cc(F)cc(F)c2)NC(=O)Cn2nc(C(F)F)c3c2C(F)(F)CCC3(F)F)ccc1F [Compound 24, (S)-5-(4-(1-(2-(3-(difluoromethyl)-4,4,7,7-tetrafluoro-4,5,6,7-tetrahydro-1H-indazol-1-yl)acetamido)-2-(3,5-difluorophenyl)ethyl)-2-((2-(2-oxopyrrolidin-1-yl)ethyl)amino)pyrimidin-5-yl)-2-fluorobenzamide]	37.2 µM	79%
NC(=O)c1cc(-c2ccc(N)nc2[C@H](Cc2cc(F)cc(F)c2)NC(=O)Cc2c[nH]c3ccc(F)cc23)ccc1F [Compound 1H, (S)-5-(6-amino-2-(2-(3,5-difluorophenyl)-1-(2-(5-fluoro-1H-indol-3-yl)acetamido)ethyl)pyridin-3-yl)-2-fluorobenzamide]	22.1 µM	98%
Nc1ccc(-c2ccc(Cl)cc2)c(C(Cc2cc(F)cc(F)c2)NC(=O)Cc2c[nH]c3ccc(F)cc23)n1 (stereo not shown) [Compound 3, N-(1-(6-amino-3-(4-chlorophenyl)pyridin-2-yl)-2-(3,5-difluorophenyl)ethyl)-2-(5-fluoro-1H-indol-3-yl)acetamide]	9.34 µM	87%
NC(=O)c1cc(-c2cnc(NCCN3CCOCC3)nc2[C@H](Cc2cc(F)cc(F)c2)NC(=O)Cn2nc(C(F)F)c3c2C(F)(F)CCC3(F)F)ccc1F [Compound 28, (S)-5-(4-(1-(2-(3-(difluoromethyl)-4,4,7,7-tetrafluoro-4,5,6,7-tetrahydro-1H-indazol-1-yl)acetamido)-2-(3,5-difluorophenyl)ethyl)-2-((2-morpholinoethyl)amino)pyrimidin-5-yl)-2-fluorobenzamide]	14.1 µM	81%

Source: US20140221346A1, “THERAPEUTIC COMPOUNDS” (Gilead Sciences, Inc., priority 2013, published 2014)
